Key:
diabetic ulcers = assay: double arm, double-blind study of adenine gel in subjects with diabetic ulcers (wound healing); type: in vivo, human
Method: The efficacy of adenine and/or a pharmaceutically acceptable salt thereof as a therapeutic agent for diabetic ulcers was evaluated through a double arm, double-blind study as disclosed in the present disclosure. The groups consist of a 0.02% adenine gel group and a placebo group. The basic information of the subjects is shown in Table 1, while the analysis of wound healing rates based on the Wagner-[…] ulcer classification system and initial wound area size is presented in Tables 2 to 4 below, respectively. Similarly, in a double arm, double-blind study as described in Example 1, the present disclosure evaluated the effects of the disclosed adenine and/or a pharmaceutically acceptable salt thereof as a medicament for treating the diabetic ulcers.

fibroblast = fibroblast growth inhibition (stated finding, no method given); type: cell-based
COX-2 = COX-2 protein expression (stated finding, no method given); type: cell-based

With `Nc1ncnc2nc[nH]c12` [adenine] the “wound healing effect (in words)” value (diabetic ulcers; Grade 1 and/or Grade 2 ulcers, or wound area 1.5 to 25 square centimeters) was “remarkably superior effects in accelerating and enhancing wound healing”, the scar formation (diabetic ulcers; directly administered to ulcer wounds in diabetic patients) was “scar formation is reduced” and the “onset of wound healing (in words)” value (diabetic ulcers; results from Table 5) was “rapid and effective healing starting from the fourth week”. For the same molecule, the fibroblast growth (fibroblast) was “inhibit fibroblast growth” and the “protein expression of COX-2” value (COX-2) was “reduce protein expression of COX-2”.
